Values of other authors in US20230062279A1, “PHARMACEUTICAL COMPOSITIONS OF BORTEZOMIB” (EXTROVIS AG, priority 2021, published 2023).
Like-named read-outs stand apart in the source and are kept apart here.

degradation (PEG 300:Ethanol:Water (40:10:50), 25° C., 24 hours): about 20%
degradation (PG:Ethanol:Water, 25° C., 8 months): 20%
degradation (ethanol and normal saline 2:98, pH 2.8, 25° C., 1 month): 20%
SMILES: CC(C)C[C@H](NC(=O)[C@H](Cc1ccccc1)NC(=O)c1cnccn1)B(O)O [bortezomib, [(1R)-3-methyl-1-[[(2S)-1-oxo-3-phenyl-2-[(pyrazinylcarbonyl)amino]propyl]amino]butyl] boronic acid]
